Results taken from patent US7338949B2, “Mycobacterial inhibitors” (Janssen Pharmaceutica N.V., priority 2004, dated 2008).

Key:
M. Smegmatis ATCC607 = experiment: In-vitro method for testing compounds for anti-bacterial activity against strain M. Smegmatis ATCC607; type: cell-based; conditions: M. smegmatis growth inhibition, 48 hours at 37° C., Alamar Blue fluorescence; for IC50: Mycolicibacterium smegmatis, ATCC607, 48 h
Procedure: D.2. In-vitro method for testing compounds for anti-bacterial activity against strain M. Smegmatis ATCC607.
Flat-bottom, sterile 96-well plastic microtiter plates were filled with 180 μl of sterile deionized water, supplemented with 0.25% BSA. Subsequently, stock solutions (7.8× final test concentration) of compounds were added in 45 μl volumes to a series of duplicate wells in column 2 so as to allow evaluation of their effects on bacterial growth. Serial five-fold dilutions (45 μl in 180 μl) were made directly in the microtiter plates from column 2 to 11 using a customised robot system (Zymark Corp., Hopkinton, Mass.). Pipette tips were changed after every 3 dilutions to minimize pipetting errors with high hydrophobic compounds. Untreated control samples with (column 1) and without (column 12) inoculum were included in each microtiter plate. Approximately 250 CFU per well of bacteria inoculum, in a volume of 100 μl in 2.8× Mueller-Hinton broth medium, was added to the rows A to H, except column 12. The same volume of broth medium without inoculum was added to column 12 in row A to H. The cultures were incubated at 37° C. for 48 hours in a humidified 5% CO2 atmosphere (incubator with open air valve and continuous ventilation). At the end of incubation, two days after inoculation, the bacterial growth was quantitated fluorometrically. Therefore Alamar Blue (10×) was added to all wells in a volume of 20 μl and plates were incubated for another 2 hours at […]
The fluorescence was read in a computer-controlled fluorometer (Cytofluor, Biosearch) at an excitation wavelength of 530 nm and an emission wavelength of 590 nm (gain 30). The % growth inhibition achieved by the compounds was calculated according to standard methods. The pIC50 was defined as the 50% inhibitory concentration for bacterial growth.

SMILES | melting point [°C] | IC50 (M. Smegmatis ATCC607) [nM] | pIC50 (M. Smegmatis ATCC607)
COc1nc2ccc(-c3ccccc3)cc2cc1[C@@H](c1ccccc1)[C@@]1(c2cccc3ccccc23)CCN(C)CO1 (single isomer, unassigned) [Compound 13] | – | 316 | –
COc1nc2ccc(-c3ccco3)cc2cc1[C@@H](c1ccccc1)[C@@]1(c2cccc3ccccc23)CCN(C)CO1 (single isomer, unassigned) [Compound 16] | – | 316 | –
COc1nc2ccc(Cl)cc2cc1[C@@H](c1ccccc1)[C@@]1(c2cccc3ccccc23)CCN(C)CO1 (single isomer, unassigned) [Compound 7] | – | – | 7.9
COc1ccc2nc(OC)c([C@@H](c3ccccc3)[C@]3(c4cccc5ccccc45)CCN(C)CO3)cc2c1 (single isomer, unassigned) [Compound 8] | – | 63.1 | –
COc1nc2ccc(Cl)cc2cc1[C@@H](c1ccccc1)[C@]1(c2cccc3ccccc23)CC[N+](C)(C)CO1.[I-] (single isomer, unassigned) | 211 | – | –
COc1nc2ccc(-c3ccccc3)cc2cc1[C@@H](c1ccccc1)[C@]1(c2cccc3ccccc23)CCN(C)CO1 (single isomer, unassigned) [Compound 6] | – | 25.1 | –
COc1nc2ccc(Cl)cc2cc1[C@@H](c1ccccc1)[C@@]1(c2cccc3ccccc23)CC[N+](C)(C)CO1.[I-] (single isomer, unassigned) | 195 | – | –
COc1nc2ccc(Br)cc2cc1[C@@H](c1ccc(Cl)cc1)[C@@]1(c2cccc3ccccc23)CCN(C)CO1 (single isomer, unassigned) [Compound 17] | – | 316 | –
COc1ccc2nc(OC)c([C@@H](c3ccccc3)[C@@]3(c4cccc5ccccc45)CCN(C)CO3)cc2c1 (single isomer, unassigned) [Compound 14] | – | 316 | –

Second part, led by results:

melting point [°C] | SMILES | IC50 (M. Smegmatis ATCC607) [nM] | pIC50 (M. Smegmatis ATCC607)
192 | CCN1CC[C@](c2ccc(F)cc2F)(C(c2ccccc2)c2cc3cc(Br)ccc3nc2OC)OC1=O (single isomer, unassigned) [Compound 5] | 20000 | –
189 | COc1nc2ccc(Cl)cc2cc1[C@@H](c1ccccc1)[C@@]1(c2cccc3ccccc23)CCN(C)CO1 (single isomer, unassigned) [Compound 3] | – | 5.1
201 | COc1nc2ccc(Br)cc2cc1[C@@H](c1ccc(Cl)cc1)[C@]1(c2cccc3ccccc23)CCN(C)CO1 (single isomer, unassigned) [Compound 2] | 63.1 | –
108 | COc1nc2ccc(Br)cc2cc1[C@@H](c1ccccc1)[C@@]1(c2cccc3ccccc23)CCN(C)CO1 (single isomer, unassigned) [Compound 11] | 316 | –
216 | CCN1CC[C@@](c2ccc(F)cc2F)(C(c2ccccc2)c2cc3cc(Br)ccc3nc2OC)OC1=O (single isomer, unassigned) [Compound 19] | – | –
168 | COc1nc2ccc(Br)cc2cc1[C@H](c1ccccc1)C1(c2ccccc2)CCN(C)CO1 (single isomer, unassigned) [Compound 12] | 158 | –
112 | COc1nc2ccc(Br)cc2cc1[C@@H](c1ccccc1)[C@]1(c2cccc3ccccc23)CCN(C)CO1 (single isomer, unassigned) [Compound 1] | 3.16 | –
